According to patent publication US20150056269A1, “LIPOSOME COMPRISING AT LEAST ONE CHOLESTEROL DERIVATIVE” (TROPHOS, priority 2011, published 2015):
Values after ≈ are worked out from the molar mass of the structure shown. Read-outs that look alike come from different tables or passages of the source.

How the values were obtained:
[1] = Suspensions of EPC liposomes containing the derivatives of formula (I): concentration in liposomes and particle size; assay type: physicochemical; conditions: for Particle size (nm): EPC liposomes containing the compound; for Concentration of compound in mg/mL in the liposomes: EPC liposomes, after extrusion and solvent removal
Method: A solution of lipids at 250 mg/mL is prepared by dissolving defined quantities of EPC and the compound of formula (I) in tert-butanol or a mixture of tert-butanol and absolute ethanol (v/v). This lipid solution is mixed at a certain temperature with aqueous buffer in order to obtain a final concentration of solvent of 15 to 17% and of product of formula (I) of […].
The large multilamellar vesicles are then extruded at a fixed temperature through 3 polycarbonate filters by 10 consecutive passes. The non encapsulated compound of formula (I) is removed on the filters.
The solvent is eliminated by filtration on membrane by washing with buffer in order to achieve a percentage of final solvent of the order of 0.4%.

[2] = Maximum solubility of the compounds of formula (I) in water and different solvents; assay type: physicochemical; conditions: for solubility: read-out: Maximum solubility (concentration)
Method: The maximum solubility of the compounds of formula (I) was tested in water and different solvents: […]

[3] = Liposome based on egg phospholipids
[4] = liposome based on egg phospholipids, oil or lipid

Structure (SMILES)	Particle size (nm) [1]	Concentration of compound in mg/mL in the liposomes [1]	further results
CC(C)CCCC(C)C1CCC2C3CCC(=NO)C(C)(CCCO)C3CCC12C (centres unmarked) [Compound 1, 3-hydroxy-3,5-seco-4-norcholestan-5-one oxime]	81.4 nm	8.1 mg/mL	Maximum solubility (concentration) ([2]; (2-hydroxypropyl)-beta-cyclodextrin, 30% PBS buffer): 700 µg/mL; Maximum solubility (concentration) ([2]; Intralipid 10): 1000 µg/mL; Maximum solubility (concentration) ([2]; Intralipid 10/Solutol HS15/ethanol 92/3/5): 5000 µg/mL; Maximum solubility (concentration) [2, 3]: 30000 µg/mL; Maximum solubility (concentration) ([2]; Soya oil): 6000 µg/mL; Maximum solubility (concentration) ([2]; Water): 1 µg/mL
CC(C)CCCC(C)C1CCC2C3CCC(=NO)C(C)(CCC(C)(C)O)C3CCC12C (centres unmarked) [Compound 2, 3,3-dimethyl-3-hydroxy-3,5-seco-4-norcholestan-5-one oxime]	79.5 nm	9.2 mg/mL	
CC(C)CCC[C@@H](C)[C@H]1CC[C@H]2[C@@H]3CCC4=CC(=NO)CC[C@]4(C)[C@H]3CC[C@]12C [Compound 3, cholest-4-en-3-one oxime]	88.9 nm	12.4 mg/mL	solubility [2, 4]: 12400 µg/mL (≈ 31000 µM); solubility ([2]; water): 0.1 µg/mL (≈ 0.25 µM)
CC(C)=CCC[C@@H](C)[C@H]1CC[C@H]2[C@@H]3CCC4=CC(=NO)CC[C@]4(C)[C@H]3CC[C@]12C [Compound 4, cholest-4,24-dien-3-one oxime]	80.7 nm	14.5 mg/mL	solubility ([2]; Intralipid 10, oil or lipid): 340 µg/mL (≈ 855 µM); solubility [2, 4]: 14500 µg/mL (≈ 36500 µM); solubility ([2]; water): 0.1 µg/mL (≈ 0.251 µM)
CC(C)CCC[C@@H](C)[C@H]1CC[C@H]2[C@@H]3CCC4=C(F)C(=NO)CC[C@]4(C)[C@H]3CC[C@]12C [Compound 5, 4-fluoro-cholest-4-en-3-one oxime]	79.1 nm	3.6 mg/mL	
CCC[C@@]1(C)C(=NO)CC[C@H]2[C@@H]3CC[C@H]([C@H](C)CCCC(C)C)[C@@]3(C)CC[C@@H]21 [Compound 6, 3,5-seco-4-norcholestan-5-one oxime]	84.7 nm	8.2 mg/mL	Maximum solubility (concentration) ([2]; Intralipid 10): 400 µg/mL; Maximum solubility (concentration) [2, 3]: 8200 µg/mL; Maximum solubility (concentration) ([2]; Water): 0.1 µg/mL
CC(C)CCC[C@@H](C)[C@H]1CC[C@H]2[C@@H]3CCC4=CC(=O)CC[C@]4(C)[C@H]3CC[C@]12C [Compound 7, cholest-4-en-3-one]		12.1 mg/mL	
CC(C)CCCC(C)C1CCC2C3CCC(=O)C(C)(CCCO)C3CCC12C (centres unmarked) [Compound 8, 3-hydroxy-3,5-seco-4-norcholestan-5-one]		11.4 mg/mL	
CC(C)=CCC[C@@H](C)[C@H]1CC[C@H]2[C@@H]3CCC4=CC(=O)CC[C@]4(C)[C@H]3CC[C@]12C [Compound 9, cholest-4,24-dien-3-one]		10.1 mg/mL	
